Laboratory results as given in BindingDB's records for doi:10.1016/j.bmcl.2007.06.058 (Mahidol University, 2007).

Assay: Inhibition of rhFGF2-induced cellular proliferation of HUVEC

IC50	Compound
17.9 µM	COc1cccc(-c2ccc3c(c2)NC(=O)/C3=C\c2[nH]c(C)c(CCC(=O)O)c2C)c1 [3-(5-{[(3Z)-6-(3-methoxyphenyl)-2-oxo-2,3-dihydro-1H-indol-3-ylidene]methyl}-2,4-dimethyl-1H-pyrrol-3-yl)propanoic acid]
18.2 µM	COc1cc(OC)cc(-c2ccc3c(c2)NC(=O)/C3=C\c2[nH]c(C)c(CCC(=O)O)c2C)c1 [(Z)-3-(5-((6-(3,5-dimethoxyphenyl)-2-oxoindolin-3-ylidene)methyl)-2,4-dimethyl-1H-pyrrol-3-yl)propanoic acid]
> 50 µM	Cc1[nH]c(/C=C2\C(=O)Nc3cc(-c4ccccc4)ccc32)c(C)c1CCC(=O)O
